Results reported in ChEMBL document CHEMBL5537118, “Synthesis of cinnamoyl tethered indoline derivatives with anti-inflammatory and antioxidant activities” (Eur J Med Chem, 2024).
Activity calls are given as the source filed them. No cut-off for these calls is given here.

Legend:
[1] = Cytotoxicity against mouse RAW264.7 cells assessed as cell viability at 2 to 10 uM measured after 24 hrs; type: toxicity, cell-based; conditions: dose 2-10 µM, read-out: Activity
[2] = tested on: RAW264.7; test: Antiinflammatory activity in LPS-induced mouse RAW264.7 cells assessed as inhibition of NO production at 2 to 10 uM pretreated for 1 hr followed by LPS addition and measured after 24 hrs by griess reagent based assay; type: functional, cell-based; conditions: dose 2-10 µM, time 25.0 hrs
[3] = tested on: RAW264.7; test: Antioxidant activity in H2O2-stimulated mouse RAW264.7 cells assessed as protection against cell damage at 2 to 5 uM pretreated for 30 mins followed by H2O2 stimulation and measured after 4 hrs by MTT assay; type: functional, cell-based; conditions: dose 2-5 µM, time 4.5 hrs
[4] = tested on: RAW264.7; test: Antiinflammatory activity in LPS-induced mouse RAW264.7 cells assessed as inhibition of NO production pretreated for 1 hr followed by LPS addition and measured after 24 hrs by griess reagent based assay; type: functional, cell-based
[5] = tested on: Mus musculus; test: Antiinflammatory activity in carrageenan-induced Kunming mouse model of paw edema assessed as edema inhibition at 30 mg/kg, IG pretreated for 1 hr followed by carrageenan administration and measured after 5 hrs relative to control; type: functional; conditions: po, time 6 hrs
[6] = tested on: Mus musculus; test: Antiinflammatory activity in carrageenan-induced Kunming mouse model of paw edema assessed as paw volume at 30 mg/kg, ip pretreated for 1 hr followed by carrageenan administration and measured after 1 hr by digital plethysmometer (reference value: 0.395 +/- 0.017 mL); type: functional; conditions: time 2 hrs
[7] = tested on: Mus musculus; test: Antiinflammatory activity in carrageenan-induced Kunming mouse model of paw edema assessed as paw volume at 30 mg/kg, ip pretreated for 1 hr followed by carrageenan administration and measured after 5 hrs by digital plethysmometer (reference value: 0.362 +/- 0.016 mL); type: functional; conditions: time 6 hrs
[8] = tested on: Mus musculus; test: Antiinflammatory activity in carrageenan-induced Kunming mouse model of paw edema assessed as paw volume at 30 mg/kg, ip pretreated for 1 hr followed by carrageenan administration and measured after 3 hrs by digital plethysmometer (reference value: 0.377 +/- 0.018 mL); type: functional; conditions: time 4 hrs
[9] = tested on: Mus musculus; test: Antiinflammatory activity in carrageenan-induced Kunming mouse model of paw edema assessed as edema inhibition at 30 mg/kg, IG pretreated for 1 hr followed by carrageenan administration and measured after 1 hr relative to control; type: functional; conditions: po, time 2 hrs
[10] = tested on: Mus musculus; test: Antiinflammatory activity in carrageenan-induced Kunming mouse model of paw edema assessed as paw volume at 30 mg/kg, IG pretreated for 1 hr followed by carrageenan administration and measured after 1 hr by digital plethysmometer (reference value: 0.407 +/- 0.023 mL); type: functional; conditions: time 2 hrs
[11] = tested on: Mus musculus; test: Antiinflammatory activity in carrageenan-induced Kunming mouse model of paw edema assessed as paw volume at 30 mg/kg, IG pretreated for 1 hr followed by carrageenan administration and measured after 3 hrs by digital plethysmometer (reference value: 0.365 +/- 0.044 mL); type: functional; conditions: time 4 hrs
[12] = tested on: Mus musculus; test: Antiinflammatory activity in carrageenan-induced Kunming mouse model of paw edema assessed as edema inhibition at 30 mg/kg, ip pretreated for 1 hr followed by carrageenan administration and measured after 5 hrs relative to control; type: functional; conditions: time 6 hrs
[13] = tested on: Mus musculus; test: Antiinflammatory activity in carrageenan-induced Kunming mouse model of paw edema assessed as paw volume at 30 mg/kg, ip pretreated for 1 hr followed by carrageenan administration and measured immediately by digital plethysmometer (reference value: 0.116 +/- 0.042 mL); type: functional
[14] = tested on: Mus musculus; test: Antiinflammatory activity in carrageenan-induced Kunming mouse model of paw edema assessed as edema inhibition at 30 mg/kg, IG pretreated for 1 hr followed by carrageenan administration and measured after 3 hrs relative to control; type: functional; conditions: po, time 4 hrs
[15] = tested on: Mus musculus; test: Antiinflammatory activity in carrageenan-induced Kunming mouse model of paw edema assessed as paw volume at 30 mg/kg, IG pretreated for 1 hr followed by carrageenan administration and measured after 5 hrs by digital plethysmometer (reference value: 0.353 +/- 0.024 mL); type: functional; conditions: time 6 hrs
[16] = tested on: Mus musculus; test: Antiinflammatory activity in carrageenan-induced Kunming mouse model of paw edema assessed as edema inhibition at 30 mg/kg, ip pretreated for 1 hr followed by carrageenan administration and measured after 3 hrs relative to control; type: functional; conditions: time 4 hrs
[17] = tested on: Mus musculus; test: Antiinflammatory activity in carrageenan-induced Kunming mouse model of paw edema assessed as paw volume at 30 mg/kg, IG pretreated for 1 hr followed by carrageenan administration and measured immediately by digital plethysmometer (reference value: 0.144 +/- 0.026 mL); type: functional
[18] = tested on: Mus musculus; test: Antiinflammatory activity in carrageenan-induced Kunming mouse model of paw edema assessed as edema inhibition at 30 mg/kg, ip pretreated for 1 hr followed by carrageenan administration and measured after 1 hr relative to control; type: functional; conditions: time 2 hrs

| Structure (SMILES) | viability at 24 h, 10 µM [1] | Activity [2] | Activity [3] | other results |
| --- | --- | --- | --- | --- |
| COc1ccc2c(c1)CCN2CCCNC(=O)/C=C/c1ccc(O)c([N+](=O)[O-])c1 | > 85% |  |  |  |
| COc1ccc2c(c1)CCN2CCCNC(=O)/C=C/c1ccc(O)c(OC)c1 | > 85% |  |  |  |
| O=C(/C=C/c1cccc(O)c1)NCCCN1CCc2ccccc21 | > 85% | inactive |  |  |
| COc1ccc2c(c1)CCN2CCCNC(=O)/C=C/c1ccc(O)cc1 | > 85% | Active | Active |  |
| O=C(/C=C/c1ccc(O)cc1)NCCCN1CCc2cc(Cl)ccc21 | > 85% | Active | Active | IC50 [4]: 4.07 µM |
| COc1ccc2c(c1)CCN2CCCNC(=O)/C=C/c1cc(OC)c(O)c(OC)c1 | > 85% |  |  |  |
| COc1cc(/C=C/C(=O)NCCCN2CCc3ccccc32)ccc1O | > 85% |  |  |  |
| COc1cc(/C=C/C(=O)NCCCN2CCc3cc(Cl)ccc32)cc(OC)c1O | > 85% |  |  |  |
| COc1cc(/C=C/C(=O)NCCCN2CCc3cc(Cl)ccc32)ccc1O | > 85% |  |  | IC50 [4]: 5 µM |
| COc1ccc2c(c1)CCN2CCCNC(=O)/C=C/c1ccc(O)c(Cl)c1 | > 85% | Active | Active |  |
| O=C(/C=C/c1ccccc1)NCCCN1CCc2cc(Cl)ccc21 | > 85% |  |  |  |
| COc1cc(/C=C/C(=O)NCCCN2CCc3cc(Cl)ccc32)cc(OC)c1OC | > 85% | Active | inactive | IC50 [4]: 3.54 µM |
| O=C(/C=C/c1cccc(O)c1)NCCCN1CCc2cc(Cl)ccc21 | > 85% | inactive |  |  |
| COc1ccc2c(c1)CCN2CCCNC(=O)/C=C/c1ccccc1 | > 85% |  |  |  |
| O=C(/C=C/c1ccc(O)c(Cl)c1)NCCCN1CCc2cc(Cl)ccc21 | > 85% | Active | Active | IC50 [4]: 3.65 µM |
| O=C(/C=C/c1ccc(O)c([N+](=O)[O-])c1)NCCCN1CCc2ccccc21 | > 85% |  |  |  |

| Structure (SMILES) | viability at 24 h, 10 µM [1] | Activity [2] | Activity [3] | other results |
| --- | --- | --- | --- | --- |
| COc1ccc2c(c1)CCN2CCCNC(=O)/C=C/c1cc(C(C)(C)C)c(O)c(C(C)(C)C)c1 | > 85% |  |  |  |
| COc1cc(/C=C/C(=O)NCCCN2CCc3ccccc32)cc(OC)c1OC | > 85% | Active | inactive | IC50 [4]: 3.9 µM |
| COc1ccc2c(c1)CCN2CCCNC(=O)/C=C/c1cccc(O)c1 | > 85% | inactive |  |  |
| O=C(/C=C/c1ccc(O)c(Cl)c1)NCCCN1CCc2ccccc21 | > 85% | Active | Active |  |
| O=C(/C=C/c1ccc(O)c([N+](=O)[O-])c1)NCCCN1CCc2cc(Cl)ccc21 | > 85% |  |  |  |
| O=C(/C=C/c1ccc(O)cc1)NCCCN1CCc2ccccc21 | > 85% | Active | Active |  |
| O=C(/C=C/c1ccc(O)c(O)c1)NCCCN1CCc2ccccc21 | > 85% | Active | Active | IC50 [4]: 1.9 µM |
| COc1cc(/C=C/C(=O)NCCCN2CCc3ccccc32)cc(OC)c1O | > 85% |  |  |  |
| COc1ccc2c(c1)CCN2CCCNC(=O)/C=C/c1ccc(O)c(O)c1 | > 85% | Active | Active | IC50 [4]: 2.07 µM |
| CC(C)(C)c1cc(/C=C/C(=O)NCCCN2CCc3cc(Cl)ccc32)cc(C(C)(C)C)c1O | > 85% |  |  |  |
| COc1ccc2c(c1)CCN2CCCNC(=O)/C=C/c1cc(OC)c(OC)c(OC)c1 | > 85% | Active | inactive | IC50 [4]: 4.43 µM |
| O=C(/C=C/c1ccc(O)c(O)c1)OCCc1ccccc1 [CAFFEIC ACID PHENETHYL ESTER] |  |  | Active | inhibition in vivo at 30 mg/kg [5]: 44.2%; Activity [6]: 0.29 mL; Activity [7]: 0.196 mL; Activity [8]: 0.243 mL; inhibition in vivo at 30 mg/kg [9]: 23.5%; IC50 [4]: 0.39 µM; Activity [10]: 0.342 mL; Activity [11]: 0.294 mL; inhibition in vivo at 30 mg/kg [12]: 69.5%; Activity [13]: 0.128 mL; inhibition in vivo at 30 mg/kg [14]: 29.1%; Activity [15]: 0.257 mL; inhibition in vivo at 30 mg/kg [16]: 54.9%; Activity [17]: 0.125 mL; inhibition in vivo at 30 mg/kg [18]: 38.6% |
| O=C(/C=C/c1ccccc1)NCCCN1CCc2ccccc21 | > 85% |  |  |  |
| CC(C)(C)c1cc(/C=C/C(=O)NCCCN2CCc3ccccc32)cc(C(C)(C)C)c1O | > 85% |  |  |  |
| CC(=O)Oc1ccc(/C=C/C(=O)NCCCN2CCc3cc(Cl)ccc32)cc1OC(C)=O |  |  |  | inhibition in vivo at 30 mg/kg [5]: 65.9%; Activity [6]: 0.329 mL; Activity [7]: 0.209 mL; Activity [8]: 0.24 mL; inhibition in vivo at 30 mg/kg [9]: 29.6%; Activity [10]: 0.325 mL; Activity [11]: 0.258 mL; inhibition in vivo at 30 mg/kg [12]: 64%; Activity [13]: 0.142 mL; inhibition in vivo at 30 mg/kg [14]: 43.9%; Activity [15]: 0.21 mL; inhibition in vivo at 30 mg/kg [16]: 56.1%; Activity [17]: 0.136 mL; inhibition in vivo at 30 mg/kg [18]: 24.3% |
